{
  "source": "PubChem BioAssay AID1963421",
  "about": "(Molecular Pharmacology Branch, DTP, NCI, 2024);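 further: seven day drug exposure begun three days after spheroid seeding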;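 on viability, T/C: 100% = DMSO vehicle wells and lower values mean less viable spheroid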",
  "tested_on": "519858-162-T-J1-PDC complex spheroid growth, % test/control",
  "test": "Anticancer human tumor 519858-162-T-J1-PDC patient-derived colon adenocarcinoma cell line growth inhibition [Asc]",
  "details": "for IC50: curve of first compound; for viability, T/C: stronger effect = lower value",
  "description": "Multicellular complex tumor spheroid response to apoptosis pathway targeting inhibitors Alrizomadlin, Pelcitoclax, and Dasminapant in combination with a variety of drugs and investigational agents in selected tumor cell lines\nThe MDM2 inhibitor alrizomadlin, the Bcl-2/Bcl-xL inhibitor pelcitoclax, and the IAPs inhibitor dasminapant were evaluated both individually and in combination with standard of care and investigational anticancer small molecules within a complex spheroid model of solid tumors. . Complex spheroids include a stromal component modeled by human endothelial cells (HUVEC) and fibroblasts modeled by human mesenchymal stem cells (MSCs). The concentration ranges selected for each drug and investigational agent were based upon clinically achievable concentrations if the clinical Cmax of the agent was known.\nCompounds. The drugs and investigational agents: alrizomadlin (APG-115; NSC831270), pelcitoclax (APG-1252; NSC835773), dasminapant (APG-1387;NSC834197), TAK-243 (NSC785004), copanlisib (NSC809693), olaparib (NSC753686), talazoparib (NSC767125), cobimetinib (NSC 768068), eltanexor (KPT-8602, NSC 794443), abemaciclib (NSC 768073), sotorasib (NSC818433), adagrasib (NSC 831453), MRTX-1133 (NSC 836407), Iadademestat (ORY1001, NSC 806812), and RMC-4630 (NSC839698), were obtained from the NCI Developmental Therapeutics Program Chemical Repository. The FDA-approved anticancer drug set is available from the Developmental Therapeutics Program at https://dtp.cancer.gov/organization/dscb/obtaining/available plates.htm. […] The stock solutions were prepared in dimethyl sulfoxide (DMSO, Sigma-Aldrich, St. Louis, MO, cat. D2650) at 800-fold the tested concentration and stored at -70 degrees C prior to their use. All drugs and investigational agents were tested over a range starting from a high concentration at or near the clinical Cmax and decreasing in half-log increments. If the clinical Cmax for an agent had not been determined, the highest concentration tested was 10 microM.\nThe patient-derived cancer (PDC) cell lines include five colon adenocarcinomas: 186277-243-T-J2-PDC, 616215-338-R-J1-PDC, 439559-082-T-J2-PDC, 463943-066-T-J2-PDC, and 519858-162-T-J1-PDC; three pancreatic carcinomas: 323965-272-R-J2-PDC, 521955-158-R6-J3-PDC, and 521955-158-R2-J5-PDC; two uterine sarcomas: 327498-152-R-J2-PDC and 993429-296-R-J1-PDC; two rhabdomyosarcomas: 755483-174-R-J1-PDC and 772245-204-R-J1-PDC; two soft tissue sarcomas: 126254-015-R-J1-PDC and 494315-158-R-J1-PDC; two malignant fibrous histiocytomas: 317291-083-R-J1-PDC and 596521-263-R-J1-PDC; two breast carcinomas: 171881-019-R-J1-PDC and 885512-296-R-J2-PDC; and one ovarian carcinoma: 6556581-035-R-J-PDC were obtained from the NCI PDMR, (https://pdmr.cancer.gov). The established cell lines HSSY-2 synovial sarcoma (RRID:CVCL 8719), SYO-1 synovial sarcoma (RRID:CVCL_7146), MPNST malignant peripheral neural sheath tumor were obtained from the Sloan Kettering Institute. The following established cell lines were purchased from the American Type Culture Collection (ATCC, Manassas, VA), Sor the received from the NCI repository:, PANC-1 pancreatic carcinoma (CRL-1469, RRID:CVCL_0480), OVCAR-5 ovarian carcinoma (RRID:CVCL_1628), OVCAR-8 ovarian carcinoma (RRID:CVCL_1629), , MCF-7 breast carcinoma (CRL-12584, RRID:CVCL_0031), MDA-MB-231 breast carcinoma (CRL-12532, RRID:CVCL_0062), NCI-H1876 small cell lung carcinoma (CRL-5902, RRID:CVCL_1503), NCI-H510A small cell lung carcinoma (HTB-184, RRID:CVCL_1565), NCI-H1417 (CRL-5869, RRID:CVCL_1469), and NCI-H196 small cell lung carcinoma (CRL-5823, RRID:CVCL_1509). Dr. Peter Houghton (Greehey Children's Cancer Research Institute, University of Texas Health Science Center, San Antonio, TX) provided Rh-18 rhabdomyosarcoma (RRID:CVCL_1659). Pooled donor human umbilical vein endothelial cells (HUVEC, Lonza, cat. CC-2519) and human mesenchymal stem cells (hMSC, Lonza, cat. PT-2501) were purchased from Lonza (Walkersville, MD).\nCell Culture. […]",
  "data": [
    {"smiles": "C=CC(=O)N1CCN(c2nc(=O)n(-c3c(C)ccnc3C(C)C)c3nc(-c4c(O)cccc4F)c(F)cc23)C(C)C1", "note": "(configuration not stated) + CNC(C)C(=O)NC1CN(S(=O)(=O)c2cccc(S(=O)(=O)N3CCC4CCC(C(=O)NC(c5ccccc5)c5ccccc5)N4C(=O)C(NC(=O)C(C)NC)C3)c2)CCC2CCC(C(=O)NC(c3ccccc3)c3ccccc3)N2C1=O", "values": [
      {"measurement": "IC50", "setting": "second compound 0.00316 µM", "result": "> 10", "unit": "µM"},
      {"measurement": "IC50", "setting": "second compound 0.01 µM", "result": "> 10", "unit": "µM"},
      {"measurement": "IC50", "setting": "second compound 0.0316 µM", "result": "> 10", "unit": "µM"},
      {"measurement": "IC50", "setting": "second compound 0.1 µM", "result": "> 10", "unit": "µM"},
      {"measurement": "IC50", "setting": "second compound 0.316 µM", "result": "> 10", "unit": "µM"},
      {"measurement": "IC50", "setting": "second compound 1 µM", "result": "> 10", "unit": "µM"},
      {"measurement": "viability, T/C", "setting": "second compound 0.00316 µM, first compound 0.0316 µM", "result": 125, "unit": "%"},
      {"measurement": "viability, T/C", "setting": "second compound 0.00316 µM, first compound 0.1 µM", "result": 106, "unit": "%"},
      {"measurement": "viability, T/C", "setting": "second compound 0.00316 µM, first compound 0.316 µM", "result": 98.9, "unit": "%"},
      {"measurement": "viability, T/C", "setting": "second compound 0.00316 µM, first compound 1 µM", "result": 75.7, "unit": "%"},
      {"measurement": "viability, T/C", "setting": "second compound 0.00316 µM, first compound 3.16 µM", "result": 88.3, "unit": "%"},
      {"measurement": "viability, T/C", "setting": "second compound 0.00316 µM, first compound 10 µM", "result": 89.6, "unit": "%"},
      {"measurement": "viability, T/C", "setting": "second compound 0.01 µM, first compound 0.0316 µM", "result": 113, "unit": "%"},
      {"measurement": "viability, T/C", "setting": "second compound 0.01 µM, first compound 0.1 µM", "result": 84, "unit": "%"},
      {"measurement": "viability, T/C", "setting": "second compound 0.01 µM, first compound 0.316 µM", "result": 101, "unit": "%"},
      {"measurement": "viability, T/C", "setting": "second compound 0.01 µM, first compound 1 µM", "result": 76.1, "unit": "%"},
      {"measurement": "viability, T/C", "setting": "second compound 0.01 µM, first compound 3.16 µM", "result": 85.8, "unit": "%"},
      {"measurement": "viability, T/C", "setting": "second compound 0.01 µM, first compound 10 µM", "result": 92.4, "unit": "%"},
      {"measurement": "viability, T/C", "setting": "second compound 0.0316 µM, first compound 0.0316 µM", "result": 104, "unit": "%"},
      {"measurement": "viability, T/C", "setting": "second compound 0.0316 µM, first compound 0.1 µM", "result": 95.4, "unit": "%"},
      {"measurement": "viability, T/C", "setting": "second compound 0.0316 µM, first compound 0.316 µM", "result": 109, "unit": "%"},
      {"measurement": "viability, T/C", "setting": "second compound 0.0316 µM, first compound 1 µM", "result": 79.1, "unit": "%"},
      {"measurement": "viability, T/C", "setting": "second compound 0.0316 µM, first compound 3.16 µM", "result": 101, "unit": "%"},
      {"measurement": "viability, T/C", "setting": "second compound 0.0316 µM, first compound 10 µM", "result": 90.8, "unit": "%"},
      {"measurement": "viability, T/C", "setting": "second compound 0.1 µM, first compound 0.0316 µM", "result": 77.9, "unit": "%"},
      {"measurement": "viability, T/C", "setting": "second compound 0.1 µM, first compound 0.1 µM", "result": 80, "unit": "%"},
      {"measurement": "viability, T/C", "setting": "second compound 0.1 µM, first compound 0.316 µM", "result": 103, "unit": "%"},
      {"measurement": "viability, T/C", "setting": "second compound 0.1 µM, first compound 1 µM", "result": 90.4, "unit": "%"},
      {"measurement": "viability, T/C", "setting": "second compound 0.1 µM, first compound 3.16 µM", "result": 77.9, "unit": "%"},
      {"measurement": "viability, T/C", "setting": "second compound 0.1 µM, first compound 10 µM", "result": 80.4, "unit": "%"},
      {"measurement": "viability, T/C", "setting": "second compound 0.316 µM, first compound 0.0316 µM", "result": 85.2, "unit": "%"},
      {"measurement": "viability, T/C", "setting": "second compound 0.316 µM, first compound 0.1 µM", "result": 94.9, "unit": "%"},
      {"measurement": "viability, T/C", "setting": "second compound 0.316 µM, first compound 0.316 µM", "result": 95.4, "unit": "%"},
      {"measurement": "viability, T/C", "setting": "second compound 0.316 µM, first compound 1 µM", "result": 89.2, "unit": "%"},
      {"measurement": "viability, T/C", "setting": "second compound 0.316 µM, first compound 3.16 µM", "result": 90.5, "unit": "%"},
      {"measurement": "viability, T/C", "setting": "second compound 0.316 µM, first compound 10 µM", "result": 98.4, "unit": "%"},
      {"measurement": "viability, T/C", "setting": "second compound 1 µM, first compound 0.0316 µM", "result": 89.7, "unit": "%"},
      {"measurement": "viability, T/C", "setting": "second compound 1 µM, first compound 0.1 µM", "result": 90.3, "unit": "%"},
      {"measurement": "viability, T/C", "setting": "second compound 1 µM, first compound 0.316 µM", "result": 80.3, "unit": "%"},
      {"measurement": "viability, T/C", "setting": "second compound 1 µM, first compound 1 µM", "result": 82, "unit": "%"},
      {"measurement": "viability, T/C", "setting": "second compound 1 µM, first compound 3.16 µM", "result": 91.1, "unit": "%"},
      {"measurement": "viability, T/C", "setting": "second compound 1 µM, first compound 10 µM", "result": 88, "unit": "%"}
    ]}
  ]
}
